# Several values for one entry are separate records, joined by “and”; a condition that tells them apart may be missing. Identical values can stand only once. Like-named read-outs stand apart in the source and are kept apart here.
# Tests used:
# [1] = test system: human coronavirus (HCoV) 229E; test: microbe, parasite or virus in culture; type: cell-based, human coronavirus 229E; settings: MRCS cells, HCoV 229E, 3 days, CellTiter Glo, read-out: 229E CPE EC50
# [2] = test system: SARS-CoV-2 replicon; test: microbe, parasite or virus in culture; type: cell-based
# [3] = unidentified human coronavirus, 72 h
# [4] = Severe acute respiratory syndrome coronavirus 2, Huh-7, 24 h; read-out: Replicon EC50
Compound,"EC50 [2, 4]",also measured
CC(C)(C)[C@H](NC(=O)Cc1ccc2c(c1)CCC2)C(=O)N1C[C@H]2[C@@H]([C@H]1C(=O)N[C@H](C#N)C[C@@H]1CCNC1=O)C2(C)C [Compound 82],,"EC50 [1]: 515 nM; EC50 [1, 3]: 449 nM"
CC(C)(C)[C@H](NC(=O)C1CC2(CCC2)C1)C(=O)N1C[C@H]2[C@@H]([C@H]1C(=O)N[C@H](C#N)C[C@@H]1CCNC1=O)C2(C)C [Compound 63],730 nM,
COc1ccsc1S(=O)(=O)N[C@H](C(=O)N1C[C@H]2[C@@H]([C@H]1C(=O)N[C@H](C#N)C[C@@H]1CCNC1=O)C2(C)C)C(C)(C)C [Compound 127],,"EC50 [1, 3]: 711 nM"
CC(C)(C)[C@H](NS(=O)(=O)c1sccc1Cl)C(=O)N1C[C@H]2[C@@H]([C@H]1C(=O)N[C@H](C#N)C[C@@H]1CCNC1=O)C2(C)C [Compound 114],,"EC50 [1]: 133 nM; EC50 [1, 3]: 67 nM"
CC(C)(C)[C@H](NC(=O)CC12CC(C(F)(F)F)(C1)C2)C(=O)N1C[C@H]2[C@@H]([C@H]1C(=O)N[C@H](C#N)C[C@@H]1CCNC1=O)C2(C)C [Compound 68],1920 nM,
CC(C)(C)OC(=O)N(C(=O)N1C[C@H]2[C@@H]([C@H]1C(=O)N[C@H](C#N)C[C@@H]1CCNC1=O)C2(C)C)[C@@H]1C[C@H]1C(F)F [Compound 60],> 30000 nM,
CC1(C(=O)N[C@H](C(=O)N2C[C@H]3[C@@H]([C@H]2C(=O)N[C@H](C#N)C[C@@H]2CCNC2=O)C3(C)C)C(C)(C)C)CCCN1 (stereo partly drawn) [Compound 65],18700 nM,
CC(C)(C)[C@H](NC(=O)C(F)(F)OCC(F)(F)F)C(=O)N1C[C@H]2[C@@H]([C@H]1C(=O)N[C@H](C#N)C[C@@H]1CCNC1=O)C2(C)C [Compound 144],110 nM,EC50 ([2]; read-out: Replicon EC50): 180 nM
C=CC(=O)N[C@H](C(=O)N1C[C@H]2[C@@H]([C@H]1C(=O)N[C@H](C#N)C[C@@H]1CCNC1=O)C2(C)C)C(C)(C)C [Compound 61],2740 nM,
CC(C)(C)[C@H](NS(=O)(=O)c1ccsc1)C(=O)N1C[C@H]2[C@@H]([C@H]1C(=O)N[C@H](C#N)C[C@@H]1CCNC1=O)C2(C)C [Compound 139],140 nM,EC50 ([2]; read-out: Replicon EC50): 160 nM
CC(C)(C)[C@H](NS(=O)(=O)c1ccc(C(F)(F)F)cc1)C(=O)N1C[C@H]2[C@@H]([C@H]1C(=O)N[C@H](C#N)C[C@@H]1CCNC1=O)C2(C)C [Compound 44],,EC50 ([2]; read-out: Replicon EC50): > 30000 nM
CNC(C)(C)C(=O)N[C@H](C(=O)N1C[C@H]2[C@@H]([C@H]1C(=O)N[C@H](C#N)C[C@@H]1CCNC1=O)C2(C)C)C(C)(C)C [Compound 59],16200 nM,
CC(C)(C)[C@H](NS(=O)(=O)N1CC2CC1C2)C(=O)N1C[C@H]2[C@@H]([C@H]1C(=O)N[C@H](C#N)C[C@@H]1CCNC1=O)C2(C)C [Compound 62],1490 nM,
CCOc1ccccc1S(=O)(=O)N[C@H](C(=O)N1C[C@H]2[C@@H]([C@H]1C(=O)N[C@H](C#N)C[C@@H]1CCNC1=O)C2(C)C)C(C)(C)C [Compound 143],65 nM,EC50 ([2]; read-out: Replicon EC50): 130 nM
Cc1c(S(=O)(=O)N[C@H](C(=O)N2C[C@H]3[C@@H]([C@H]2C(=O)N[C@H](C#N)C[C@@H]2CCNC2=O)C3(C)C)C(C)(C)C)sc2ccc(F)cc12 [Compound 148],16 nM,
CN([C@H](C(=O)N1C[C@H]2[C@@H]([C@H]1C(=O)N[C@H](C#N)C[C@@H]1CCNC1=O)C2(C)C)C(C)(C)C)S(=O)(=O)c1ccc(Cl)s1 [Compound 155],> 10000 nM,
CC(C)(C)[C@H](NC(=O)c1ccc(S(F)(F)(F)(F)F)cc1)C(=O)N1C[C@H]2[C@@H]([C@H]1C(=O)N[C@H](C#N)C[C@@H]1CCNC1=O)C2(C)C [Compound 147],> 10000 nM,

Compound,"EC50 [2, 4]",also measured
C#CCC(=O)N[C@H](C(=O)N1C[C@H]2[C@@H]([C@H]1C(=O)N[C@H](C#N)C[C@@H]1CCNC1=O)C2(C)C)C(C)(C)C [Compound 136],300 nM,EC50 ([2]; read-out: Replicon EC50): 320 nM and 420 nM and 540 nM
CC(C)(C)[C@H](NC(=O)CC(C(F)(F)F)C(F)(F)F)C(=O)N1C[C@H]2[C@@H]([C@H]1C(=O)N[C@H](C#N)C[C@@H]1CCNC1=O)C2(C)C [Compound 149],240 nM,
COC1(CC(=O)N[C@H](C(=O)N2C[C@H]3[C@@H]([C@H]2C(=O)N[C@H](C#N)C[C@@H]2CCNC2=O)C3(C)C)C(C)(C)C)CCC1 [Compound 67],> 30000 nM,
COC12CCC(C(=O)N[C@H](C(=O)N3C[C@H]4[C@@H]([C@H]3C(=O)N[C@H](C#N)C[C@@H]3CCNC3=O)C4(C)C)C(C)(C)C)(CC1)CC2 [Compound 69],10300 nM,
Cc1csc(S(=O)(=O)N[C@H](C(=O)N2C[C@H]3[C@@H]([C@H]2C(=O)N[C@H](C#N)C[C@@H]2CCNC2=O)C3(C)C)C(C)(C)C)c1 [Compound 112],62 nM,EC50 ([2]; read-out: Replicon EC50): 86 nM
CC(C)(C)[C@H](NC(=O)C(F)(F)C(F)(F)C(F)(F)C(F)(F)F)C(=O)N1C[C@H]2[C@@H]([C@H]1C(=O)N[C@H](C#N)C[C@@H]1CCNC1=O)C2(C)C [Compound 146],80 nM,EC50 ([2]; read-out: Replicon EC50): 85 nM
CCCc1ccc(S(=O)(=O)N[C@H](C(=O)N2C[C@H]3[C@@H]([C@H]2C(=O)N[C@H](C#N)C[C@@H]2CCNC2=O)C3(C)C)C(C)(C)C)s1 [Compound 171],29 nM,
CC(C)(C)[C@H](NC(=O)c1cccc(S(F)(F)(F)(F)F)c1)C(=O)N1C[C@H]2[C@@H]([C@H]1C(=O)N[C@H](C#N)C[C@@H]1CCNC1=O)C2(C)C [Compound 145],3960 nM,EC50 ([2]; read-out: Replicon EC50): 4000 nM
CCN([C@H](C(=O)N1C[C@H]2[C@@H]([C@H]1C(=O)N[C@H](C#N)C[C@@H]1CCNC1=O)C2(C)C)C(C)(C)C)S(=O)(=O)c1ccc(OC)cc1 [Compound 153],2110 nM,
CN([C@H](C(=O)N1C[C@H]2[C@@H]([C@H]1C(=O)N[C@H](C#N)C[C@@H]1CCNC1=O)C2(C)C)C(C)(C)C)S(=O)(=O)c1cccc2ccccc12 [Compound 156],1400 nM,
CN1CCCC1C(=O)N[C@H](C(=O)N1C[C@H]2[C@@H]([C@H]1C(=O)N[C@H](C#N)C[C@@H]1CCNC1=O)C2(C)C)C(C)(C)C (stereo partly drawn) [Compound 58],4720 nM,
Cc1cc(C)c(S(=O)(=O)N[C@H](C(=O)N2C[C@H]3[C@@H]([C@H]2C(=O)N[C@H](C#N)C[C@@H]2CCNC2=O)C3(C)C)C(C)(C)C)c(C)c1 [Compound 152],65 nM,
CC(C)(C)[C@H](NC(=O)CS(C)(=O)=O)C(=O)N1C[C@H]2[C@@H]([C@H]1C(=O)N[C@H](C#N)C[C@@H]1CCNC1=O)C2(C)C [Compound 64],990 nM,
CN([C@H](C(=O)N1C[C@H]2[C@@H]([C@H]1C(=O)N[C@H](C#N)C[C@@H]1CCNC1=O)C2(C)C)C(C)(C)C)S(=O)(=O)c1ccc2ccccc2c1 [Compound 150],2910 nM,
CC(C)(C)[C@H](NC(=S)Nc1cccc(C(F)(F)F)c1)C(=O)N1C[C@H]2[C@@H]([C@H]1C(=O)N[C@H](C#N)C[C@@H]1CCNC1=O)C2(C)C [Compound 52],410 nM,
CC(C)(C)NC(=S)N[C@H](C(=O)N1C[C@H]2[C@@H]([C@H]1C(=O)N[C@H](C#N)C[C@@H]1CCNC1=O)C2(C)C)C(C)(C)C [Compound 56],,"EC50 ([2]; Severe acute respiratory syndrome coronavirus 2, Huh-7, 24 h, read-out: Replicon EC50): 370 nM"
